# Tests used:
# most cancer types = assay: MTT and SRB growth inhibition assays, many cancer types; type: cell-based
# Procedure: (§1) The anti-cancer activities of COMPOUND I were evaluated using the microtetrazoline (MTT) and sulforhodamine B (SRB) assays.
# H-22 liver cancer cells = assay: MTT and SRB growth inhibition assays; type: cell-based
# Procedure: as §1
# leukemia cells = assay: MTT and SRB growth inhibition assays; type: cell-based
# Procedure: as §1
# [1] = system: Lewis lung carcinoma cells; assay: MTT and SRB growth inhibition assays; type: cell-based, murine; settings: Mus musculus
# Procedure: as §1
# [2] = system: Du145 prostate cancer cells; assay: Pulse-exposure clonal growth study; type: cell-based
# Source text: (§2) Pulse-exposure studies, using methods as described in Kubota et al., Cancer Res. 1998; 58: 3370-3375 and Campbell et al., J. Mol. Endocrinol.
# [3] = system: LNCap prostate cancer cells; assay: Pulse-exposure clonal growth study; type: cell-based
# Source text: as §2
# [4] = system: PC-3 prostate cancer cells; assay: Pulse-exposure clonal growth study; type: cell-based; settings: PC-3, pulse-exposure
# Source text: as §2
# Lewis lung carcinomas = assay: Subcutaneous Lewis lung carcinoma growth in mice; type: in vivo; settings: for Tumor vol.: daily intralesional injections 50 mg/kg
# Procedure: (§3) To determine if Compound I could inhibit primary tumor growth, syngeneic mice (C57B 16/J) bearing subcutaneous Lewis lung carcinomas and H-22 liver cancer were treated with Compound I with daily intralesional injections of (50 mg/kg) 1 mg of Compound I per 20 g mouse body weight.
# Inhibition of primary tumor growth was first observed at dose of 20 mg/kg/day. Increased doses of Compound I correlated with increased efficacy of tumor inhibition. Inhibition of metastatic growth occurred at doses of approximately 20 mg/kg/day. […] In contrast, tumor in animals treated with saline grew rapidly in size to >6.000 mm^3, leading to the demise of all animals on day 17 after tumor implantation.
# H-22 liver cancer = assay: Subcutaneous H-22 liver cancer growth in mice; type: in vivo; settings: 50 mg/kg daily intralesional, 14 days treatment period
# Procedure: as §3
# human cancer cells = assay: Human cancer cells transplanted to nude mice; type: in vivo
# Source text: The in vivo anti-cancer activities of COMPOUND I were further evaluated using various other human cancer cells transplanted to nude mice.
# malignant cells = assay: Clonal proliferation, cell cycle and apoptosis of malignant cells in vitro; type: cell-based
# Source text: as §2
smiles,measurement,setting,value
c1cnc2ccc(Nc3nc(NC4CC4)c4nc[nH]c4n3)cc2c1 [Compound I],growth in vitro of many types of cancers,most cancer types; MTT and SRB assays,significantly inhibited growth
same,IC50,most cancer types; most cancer types,0.5 to 3 µM
same,IC50,H-22 liver cancer cells,2.24 µg/mL
same,IC50,leukemia cells,2.5 µg/mL
same,IC50,[1],2.81 µg/mL
same,50% inhibition (ED50) of clonal growth,[2],approximately 18 μg/ml
same,50% inhibition (ED50) of clonal growth,[3],approximately 18 μg/ml
same,50% inhibition (ED50) of clonal growth,[4],approximately 18 μg/ml
same,Tumor vol.,Lewis lung carcinomas; day 2,200 mm^3
same,Tumor vol.,Lewis lung carcinomas; day 4,300 mm^3
same,Tumor vol.,Lewis lung carcinomas; day 6,500 mm^3
same,Tumor vol.,Lewis lung carcinomas; day 8,700 mm^3
same,Tumor vol.,Lewis lung carcinomas; day 10,900 mm^3
same,Tumor vol.,Lewis lung carcinomas; day 12,1200 mm^3
same,Tumor vol.,Lewis lung carcinomas; day 14,1500 mm^3
same,Tumor vol.,Lewis lung carcinomas; day 16,1800 mm^3
same,Tumor vol.,Lewis lung carcinomas; day 17,2200 mm^3
same,toxicity,Lewis lung carcinomas; treated tumor-bearing mice,no detectable toxicity
same,dose at which inhibition of metastatic growth occurred,Lewis lung carcinomas; tumor-bearing mice,approximately 20 mg/kg/day
same,dose at which inhibition of primary tumor growth was first observed,Lewis lung carcinomas; tumor-bearing mice,20 mg/kg/day
same,growth of H-22 liver cancer in mice,H-22 liver cancer,primary tumor growth was inhibited
same,in vivo growth of human cancers,human cancer cells,inhibits in vivo growth of many types of human cancers
same,clonal proliferation of a variety of malignant cells in vitro,"malignant cells; prostate and breast cancers, neuroepithelioma, melanoma, leukemia",inhibit the clonal proliferation
same,cell cycle arrest and apoptosis,malignant cells; some of these cells,induces cell cycle arrest and apoptosis

# Reference: patent US7399754B2, “N2-quinoline or isoquinoline substituted purine derivatives” (priority 2005, dated 2008)
